Common to all, as to assay type: physicochemical
The nature of series [1]: Approximate solubility (aliquots of solvent, visual inspection). As to the method: Weighed samples were treated with aliquots of test solvents at room temperature. Samples were typically sonicated between additions to facilitate dissolution. Complete dissolution of the test material in each solvent was determined by visual inspection. Solubility was estimated based on the total volume of solvent used to provide complete dissolution. The actual solubility may be greater than the value calculated due to the incremental addition of solvent and kinetics of dissolution of the material. […] The solubility is expressed as […] if dissolution occurred after the addition of first aliquot.
Approximate solubilities are calculated based on the total solvent used to give a solution based on visual inspection. Small aliquots of solvent are added to a weighed sample with agitation. Actual solubilities may be greater because of the volume of the solvent portions utilized or a slow rate of dissolution. Solubilities are reported to the nearest mg/mL. Simulated gastric fluid (SGF) was prepared according to the 2008 USP vol. 1, p 817 except without pepsin.
Approximate solubilities are calculated based on the total solvent used to give a solution based on visual inspection. Small aliquots of solvent are added to a weighed sample with agitation. Actual solubilities may be greater because of the volume of the solvent portions utilized or a slow rate of dissolution.

A short description of series [2]: Relative humidity stress / physical stability on exposure and storage. The following applies: for hygroscopicity (in words): judged from 75% RH exposure; for physical change when exposed to 75% RH: 75% RH for 3 days. An excerpt:
Following isolation, salts were then characterized by one or more standard techniques including but not limited to x-ray powder diffraction (XRPD), single crystal x-ray diffraction (SC-XRD or XRD), nuclear magnetic resonance (NMR), solubility analysis, and stability testing by moisture sorption/desorption stress analysis and differential scanning calorimetry (DSC).

Series [3] in a line: Moisture sorption/desorption (DVS) analysis. Particulars: for weight loss on desorption: between ~95% and ~5% RH; for hygroscopicity (in words): from DVS data; for total weight gain (water uptake): relative humidity from ~5% to ~95% RH; for weight loss during desorption: desorption step, 95% to 5% RH. As to the method:
Moisture sorption/desorption (DVS) data were collected on a VTI SGA-100 Vapor Sorption Analyzer. Sorption and desorption data were collected over a range of 5% to 95% relative humidity (RH) at 10% RH intervals under a nitrogen purge. Samples were not dried prior to analysis. Equilibrium criteria used for analysis were less than 0.0100% weight change in 5 minutes, with a maximum equilibration time of 3 hours if the weight criterion was not met. Data were not corrected for the initial moisture content of the samples. NaCl and PVP were used as calibration standards.

Where [4] appears, read: Water, salts of (S)-4′-(OH)-DADFT-PE (Table 16).
Where [5] appears, read: water, salts of (S)-4′-(OH)-DADFT-PE.
Setting [6] is: listed as Tromethamine Salt of (S)-4′-(OH)-DADFT-PE.
Where [7] appears, read: listed as Magnesium Salt of (S)-4′-(Oh)-DADFT-PE.
Where [8] appears, read: SGF (simulated gastric fluid, without pepsin), Table 14.
The mark [9] stands for this setting: Water, salts of (S)-3′-(OH)-DADFT-PE (Table 14).
Setting [10] is: water, salts of (S)-3′-(OH)-DADFT-PE.
Setting [11] is: sorption step from 5% to 95% RH.

Here are results for eleven compounds from patent US8829197B2, “Salts and polymorphs of desazadesferrithiocin polyether analogues as metal chelation agents” (FerroKin Biosciences, Inc., priority 2008, dated 2014).

Where a name gives a salt, the structure may show the parent alone. Read-outs that look alike come from different tables or passages of the source.

What is called solubility is the dissolved amount per volume that the medium holds. With `COCCOCCOCCOc1cccc(C2=N[C@@](C)(C(=O)O)CS2)c1O` [Magnesium salt of (S)-3′-(OH)-DADFT-PE, magnesium (S)-2-(2-hydroxy-3-(2-(2-(2-methoxyethoxy)ethoxy)ethoxy)phenyl)-4-methyl-4,5-dihydrothiazole-4-carboxylate hydroxide], the solubility was at least 50 mg/mL in series [1] (simulated gastric fluid (SGF) without pepsin, simulated gastric fluid, thermodynamic from solid, SGF (simulated gastric fluid, without pepsin), Table 14, read-out: Approximate Solubility); at least 48 mg/mL in series [1] (water, thermodynamic from solid, Water, salts of (S)-3′-(OH)-DADFT-PE (Table 14), read-out: Approximate Solubility); at least 48 mg/mL in series [1] (water, thermodynamic from solid, water, salts of (S)-3′-(OH)-DADFT-PE, read-out: aqueous solubility). Moreover, the “XRPD pattern after exposure to 75% RH” value in series [2] (75% RH for 8 days) was “remained unchanged”. Moreover, the “deliquescence when exposed to 75% RH” value in series [2] (75% RH for 8 days) was “did not deliquesce”. For the same compound, the “hygroscopicity (in words)” value in series [2] is given as “non-hygroscopic”.
In the case of `COCCOCCOCCOc1ccc(C2=N[C@@](C)(C(=O)O)CS2)c(O)c1` [Calcium A], the solubility in series [1] (0.1N HCl in water, simulated gastric fluid, thermodynamic from solid, 0.1N HCl in Water, Table 16, read-out: Solubility) was 3 mg/mL; in series [1] (setting [4]) it was under 0.5 mg/mL. For the same compound, in series [1] (setting [5]), the “aqueous solubility (in words)” value is given as “negligible”. For the same compound, the “deliquescence upon ~75% RH stress” value in series [2] (~75% RH stress) is listed as “No apparent deliquescence”.
The term aqueous solubility denotes how much of the substance goes into solution per volume. For `COCCOCCOCCOc1ccc(C2=N[C@@](C)(C(=O)O)CS2)c(O)c1` [Tromethamine A, 1,3-dihydroxy-2-(hydroxymethyl)propan-2-aminium (S)-2-(2-hydroxy-4-(2-(2-(2-methoxyethoxy)ethoxy)ethoxy)phenyl)-4-methyl-4,5-dihydrothiazole-4-carboxylate], the aqueous solubility in series [1] (water, salts of (S)-4′-(OH)-DADFT-PE, listed as Tromethamine salt candidate) is over 124 mg/mL. Moreover, in series [2] (one day relative humidity stress, ~75% RH, elevated temperature), the “appearance upon ~75% RH stress at elevated temperature” value is “become oily”. Besides, the “deliquescence upon ~75% RH stress” value in series [2] (~75% RH stress, listed as Tromethamine salt candidate) is “no apparent deliquescence”. Also, in series [3] (above ~65% RH), the “weight gain above ~65% RH” value is on record as about 50.3 wt %. The “weight gain (water uptake) below ~65% RH” value in series [3] (below ~65% RH) was about 1.5 wt %. In series [3] (setting [6]), the “weight loss on desorption” value is on record as about 48.4 wt %, the “total weight gain (water uptake)” value is about 51.8 wt % and the “weight loss upon equilibration at ~5% RH” value is recorded as about 0.7 wt %. Moreover, the “hygroscopicity (in words)” value in series [3] is “lower hygroscopicity compared to magnesium and NMG salt candidates”.
For `COCCOCCOCCOc1ccc(C2=N[C@@](C)(C(=O)O)CS2)c(O)c1` [Magnesium A], the solubility in series [1] (setting [4]) is listed as 60 mg/mL. For the same compound, the aqueous solubility in series [1] (water, salts of (S)-4′-(OH)-DADFT-PE, listed as magnesium salt candidate) is about 60 mg/mL. In series [2] (~75% RH stress, listed as magnesium salt candidate), the “deliquescence upon ~75% RH stress” value is recorded as “No apparent deliquescence”. Also, in series [3] (above ~85% RH, listed as Magnesium Salt of (S)-4′-(Oh)-DADFT-PE), the “additional weight gain above ~85% RH” value is recorded as about 20.2 wt %. The “weight gain below ~85% RH” value in series [3] (below ~85% RH, listed as Magnesium Salt of (S)-4′-(Oh)-DADFT-PE) is given as about 22.0 wt %. Further, in series [3] (setting [7]), the “weight loss on desorption” value is on record as about 41.2 wt %, the “total weight gain (water uptake)” value is about 42.7 wt % and the “weight loss upon equilibration at ~5% RH” value is on record as about 0.7 wt %. Also, in series [3] (listed as magnesium salt candidate), the “total weight gain (water uptake)” value is listed as about 42.7 wt %.
As for “zinc (S)-3′-desazadesferrithiocin polyether [Zinc salt of (S)-3′-(OH)-DADFT-PE]”, the “Approximate Solubility” value in series [1] (setting [8]) is “≧39 mg/mL”. Further, the “Approximate Solubility” value in series [1] (setting [9]) is under 1 mg/mL. The aqueous solubility in series [1] (setting [10]) was about 1 mg/mL. In series [2], the “physical change when exposed to 75% RH” value is listed as “remained physically unchanged” and the “hygroscopicity (in words)” value is reported as “non-hygroscopic”.
Regarding `COCCOCCOCCOc1cccc(C2=N[C@@](C)(C(=O)[O-])CS2)c1O.[Na+]` [Sodium salt of (S)-3′-(OH)-DADFT-PE], in series [2], the “physical change when exposed to 75% RH” value is listed as “remained physically unchanged” and the “hygroscopicity (in words)” value is listed as “non-hygroscopic”. For the same compound, in series [2] (lyophilized solid, ambient air (~57% RH) for a few minutes), the “exposure to ambient air” value is on record as “solids deliquesced”.
Regarding `COCCOCCOCCOc1cccc(C2=N[C@@](C)(C(=O)[O-])CS2)c1O.[K+]` [potassium salt Form A, potassium (S)-3′-desazadesferrithiocin polyether], the “Approximate Solubility” value is recorded as over 6 mg/mL in series [1] (ACN, Table 14); over 70 mg/mL in series [1] (EtOAc/H2O, Table 14); over 68 mg/mL in series [1] (IPA, Table 14); under 7 mg/mL in series [1] (MEK, Table 14); “≧230 mg/mL” in series [1] (setting [8]); ~ 5 mg/mL in series [1] (THF, Table 14). Also, the “Approximate Solubility” value in series [1] (setting [9]) is “≧48 mg/mL”. Further, in series [1] (setting [10]), the aqueous solubility was at least 48 mg/mL. The “form obtained on exposure to 53% RH” value in series [2] (53% RH for 11 days at room temperature) is reported as “Form B”. In series [2], the “physical change when exposed to 75% RH” value is “Complete deliquesce”. Besides, the “weight loss during desorption” value in series [3] is reported as 63.4%. The “hygroscopicity (in words)” value in series [3] is reported as “extremely hygroscopic”. Moreover, the “average percentage weight loss at plateau of absorption curve” value in series [3] (plateau between 45 and 65% RH) was found to be 8.7%. The “weight gain during sorption” value in series [3] (setting [11]) is listed as 67.7%.
As to `C1CNCCN1.COCCOCCOCCOc1cccc(C2=N[C@@](C)(C(=O)O)CS2)c1O` [piperazine salt of (S)-3′-(OH)-DADFT-PE], in series [2], the “physical change when exposed to 75% RH” value is listed as “deliquesced” and the “hygroscopicity (in words)” value is “hygroscopic”.
On to `COCCOCCOCCOc1ccc(C2=N[C@@](C)(C(=O)O)CS2)c(O)c1` [Lysine A, 2,6-diammoniohexanoate (S)-2-(2-hydroxy-4-(2-(2-(2-methoxyethoxy)ethoxy)ethoxy)phenyl)-4-methyl-4,5-dihydrothiazole-4-carboxylate], for which the solubility in series [1] (setting [4]) is given as under 0.5 mg/mL. Further, in series [1] (setting [5]), the “aqueous solubility (in words)” value is listed as “negligible”. In addition, in series [2] (~75% RH stress), the “appearance upon ~75% RH stress” value is listed as “became oily”. In series [2] (~75% RH stress, listed as Lysine salt candidate), the “deliquescence upon ~75% RH stress” value is reported as “No apparent deliquescence”.
Turning to `COCCOCCOCCOc1cccc(C2=N[C@@](C)(C(=O)[O-])CS2)c1O.[K+]` [potassium salt Form B, potassium (S)-3′-desazadesferrithiocin polyether], the “form conversion on exposure to 40° C.” value in series [2] (40° C. for 6 days) is reported as “desolvated into a mixture with Form A”. In addition, in series [2] (P2O5 for 6 days), the “form conversion on exposure to P2O5” value is “converted to a new form, namely Form C”. The “physical stability of the form (in words)” value in series [2] (low humidity (P2O5) or elevated temperature (40° C.)) is reported as “unstable”. For the same compound, in series [3], the “weight loss during desorption” value is recorded as about 66% and the “hygroscopicity (in words)” value was “extremely hygroscopic”. In series [3] (plateau between 35 and 65% RH), the “average percentage weight gain at plateau of absorption curve” value is recorded as about 8%. The “weight gain during sorption” value in series [3] (setting [11]) is reported as about 70%.
As for `COCCOCCOCCOc1cccc(C2=N[C@@](C)(C(=O)O)CS2)c1O` [magnesium salt Form B, magnesium (S)-2-(2-hydroxy-3-(2-(2-(2-methoxyethoxy)ethoxy)ethoxy)phenyl)-4-methyl-4,5-dihydrothiazole-4-carboxylate hydroxide], the “weight loss upon equilibrium at 5% RH” value in series [3] (5% RH) came to 10.8%. The “additional weight gain during sorption” value in series [3] (above 65% RH, equilibrium weight not reached) is 21.2%. In series [3], the “weight loss during desorption” value was 26.6% and the “hygroscopicity (in words)” value was “hygroscopic”. Moreover, the “weight gain during sorption” value in series [3] (from 5% to 65% RH) was found to be 5.7%.
